In PubChem BioAssay (NCI):
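Assay format: 96-well plates, 48-hour exposure. TGI marks complete inhibition of growth.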

Assays:
Assay in all cases: DTP human tumour cell line panel, 48 h
[1] = test system: HCT-116 colon
[2] = test system: MCF7 breast
[3] = test system: T-47D breast
[4] = test system: RPMI-8226 leukemia
[5] = test system: OVCAR-3 ovarian
[6] = test system: SF-295 CNS
[7] = test system: MDA-MB-231 breast
[8] = test system: SK-OV-3 ovarian
[9] = test system: SNB-75 CNS
[10] = test system: MDA-MB-435
[11] = test system: CAKI-1 renal

| Compound | TGI [1] | TGI [2] | TGI [3] | TGI [4] | TGI [5] | TGI [6] | TGI [7] | TGI [8] | TGI [9] | TGI [10] | TGI [11] |
| --- | --- | --- | --- | --- | --- | --- | --- | --- | --- | --- | --- |
| c1ccc2c(c1)OC(N1CCCC1)c1cnc(N3CCOCC3)nc1-2 (stereo not drawn) | > 100 µM | 38.2 µM | 45.2 µM | 74.7 µM | > 100 µM | > 100 µM | > 100 µM | > 100 µM | 54.4 µM | > 100 µM | > 100 µM |
| Cc1ccc(C(=O)N/N=C(\N=Nc2ccc(C(=O)O)cc2)c2ccc(N(CCC#N)CCC#N)cc2C)cc1 | > 100 µM | > 100 µM | > 100 µM | > 100 µM | > 100 µM | > 100 µM | > 100 µM | > 100 µM | > 100 µM | > 100 µM | > 100 µM |
| CCCCCCCCCCCCCCCCCCOCC(O)COP(=O)(O)OCC1OC(n2ccc(N)nc2=O)C(O)C1O (stereo not drawn) | > 100 µM | > 100 µM | > 100 µM | 52.9 µM | > 100 µM | 68.8 µM | 64.7 µM | > 100 µM | 28.7 µM | > 100 µM | 75 µM |
| CCOC(=O)C(Cl)(NC(=O)OCc1ccccc1)C(F)(F)F (stereo not drawn) | > 100 µM | > 100 µM | > 100 µM | > 100 µM | > 100 µM | > 100 µM | > 100 µM | > 100 µM | > 100 µM | > 100 µM | > 100 µM |
| COC(=O)/C=C1/OC(c2ccc(OC)cc2)=C(Cl)C1=O | 26.5 µM | 25 µM | 36.6 µM | 13.6 µM | 26.3 µM | 43.4 µM | 26.2 µM | 25.2 µM | 37.3 µM | 30.4 µM | 27 µM |
| CCO/C=N/C1=C(C#N)SC2=N/C(=C\c3ccccc3)C(=O)N21 | > 100 µM | > 100 µM | > 100 µM | > 100 µM | > 100 µM | > 100 µM | > 100 µM | > 100 µM | > 100 µM | > 100 µM | > 100 µM |
| Fc1ccc(C(OCCN2CC3CCC(C2)N3CCCc2ccccc2)c2ccc(F)cc2)cc1 | 11.3 µM | 10.7 µM | 6.28 µM | 4.8 µM | 21.8 µM | 11.8 µM | 10.2 µM | 23.3 µM | 17 µM | 4.68 µM | 19.1 µM |
| COc1ccc(-c2c(C#N)c(S)n(NS(=O)(=O)c3ccccc3)c(=O)c2C#N)cc1 | > 100 µM | > 100 µM | > 100 µM | 98.4 µM | > 100 µM | > 100 µM | > 100 µM | > 100 µM | > 100 µM | > 100 µM | > 100 µM |
